Values joined by “and” are separate entries in the source; they are usually repeats but may differ in a detail not shown here. Equal values may be shown once.

The source of these data is patent US10842765B2, “Methods of reducing or preventing oxidation of small dense ldl or membrane polyunsaturated fatty acids” (Amarin Pharmaceuticals Ireland Limited, priority 2016, dated 2020).

One assay concerns human LDL. The assay is described as follows: Copper-induced unfractionated LDL oxidation, TBARS, Example 7. It is filed as biochemical. The note with it: beginning at 1.0 μM; 1 hour.
The subject of another assay is human sdLDL. The assay is described as follows: Copper-induced sdLDL oxidation, TBARS, Example 7. The class given is biochemical.
Assay [1] in a line: Glucose-induced membrane lipid peroxidation (LOOH) in lipid vesicles, Example 4. The class given is biochemical. The note with it: 1.0 μM; glucose 200 mg/dL; 96 hours. Here is the method: An experiment was conducted to test the ability of EPA to interfere with the effects of high glucose on membrane lipid peroxidation and organization in vesicles enriched with PUFAs. […] Vitamin E (α-tocopherol) was also purchased from Sigma-Aldrich and prepared in ethanol at 1.0 mM (ε=3.06×10^4 M^−1 cm^−1 at 294 nm) just prior to experimental use. […] All test compounds were further diluted in ethanol or aqueous buffer as needed. Glucose was prepared in saline buffer (0.5 mM HEPES, 154 mM NaCl, pH 7.3) at 11.0 mM (200 mg/dL). CHOD-iodide color reagent (stock) was prepared, with slight modification, as described by from El-Saadani et al. (J. […] Samples were shell-dried under nitrogen gas and placed under vacuum for 1 h to remove residual solvent. […] Lipid suspensions were then vortexed for 3 min at ambient temperature to form MLVs. All MLV samples were subjected to time-dependent autoxidation by incubating at 37° C. in an uncovered, shaking water bath. This method allows lipid peroxidation to occur gradually without requiring the use of exogenous initiators. Small aliquots (5-100 μL) of each sample were removed, immediately following MLV preparation (0 hour) and after exposing samples to oxidative conditions for 72 or 96 hour, and combined with 1.0 mL of activated CHOD-iodide color reagent. Aliquot volume was reduced with each successive time point to ensure that spectrophotometric readings were within the optimal adsorption range. Test samples were covered and incubated in darkness at room temperature for at least 4 hr. Sample absorbances were then measured against a CHOD blank at 365 nm using a Beckman DU-640 spectrophotometer. The CHOD colorimetric assay is based on the oxidation of iodide (I^−) by lipid hydroperoxide (LOOH) to form triiodide (I3^−), the quantity of which is directly proportional to the amount of LOOH present in the lipid sample. The molar absorptivity (I3^−) of I3^− is 2.46×10^4 M^−1 cm^−1 at 365 nm. […]

Assay [2] deals with rat renal glomerular endothelial cells. Put plainly: NO and ONOO- release ex vivo from glomerular endothelial cells exposed to oxLDL and high glucose, Example 13. The class given is cell-based. The note with it: 10.0 μM, 1 hr; oxLDL 11 mg/dL and glucose 300 mg/dL; vs vehicle. The protocol:
Healthy male Wistar Kyoto (WKY) rats, aged 7-9 weeks and weighing 250±20 g, were obtained from inbred colonies (National Institutes of Health, Bethesda, Md.). Animals were housed in a controlled environment that provided food and water ad libitum prior to the study. […] Animals were sacrificed and tissue samples obtained immediately for experimentation. All procedures were conducted in accordance with standard Institutional Animal Care and Use Committee guidelines and conformed to the Guide for the Care and Use of Laboratory Animals published by the US National Institutes of Health.
EPA and DHA were purchased from Sigma-Aldrich (St. Louis, Mo.) and solubilized in ethanol to 1.0 mM under nitrogen atmosphere. […]
LDL was oxidized according to the methods of Huber et al. 16 Briefly, the purified LDL fraction was dialyzed against Tris/NaCl Buffer (50 mM Tris in 0.15 M NaCl, pH 8.0) to remove EDTA. […] LDL oxidation was initiated with 20 μM CuSO4 and monitored spectrophotometrically (234 nm) over a period of 24 hours until complete. […]
Each analyte was measured from amperograms and standard calibration curves collected under maximum current. […] Changes in current (proportional to the molar concentrations of NO or ONOO^− released) were monitored continuously immediately following Cal stimulation. […]

In another assay the test system is HUVECs. Put plainly: NO and ONOO- release from HUVECs exposed to oxLDL (nanosensors), Example 8. It is filed as cell-based, human. To be noted: ECs exposed to oxLDL. The protocol: Human umbilical vein endothelial cells (HUVECs) were isolated into primary cultures from female donors by Clonetics (San Diego, Calif.) and purchased as proliferating cells. All cell culture donors were healthy, with no pregnancy or prenatal complications. […] The confluent cells (4 to 5×10^5 cells/35 mm dish) were placed with minimum essential medium containing 3 mM L-arginine and 0.1 mM BH4 [(6R)-5,6,7,8-tetrahydrobiopterin]. Before experimental use, the cells (from second or third passage) were rinsed twice with Tyrode-HEPES buffer with 1.8 mM CaCl2. […]
Oxidation was monitored by the use of measurements of TBARS. […] TBARS concentration was determined as malondialdehyde (MDA) equivalents with the use of an MDA standard curve. […]
The amperometric method (with a response time of 0.1 ms) provides a quantitative signal (current) that is directly proportional to changes (from basal levels) in NO or ONOO^− concentration. […] Basal NO or ONOO^− levels were measured by differential pulse voltammetry in separate experiments. […]
Data are presented as mean±S.D. for (N) separate samples or experiments. Differences between groups were analyzed using the two-tailed, Student t-test (for comparisons between only two groups) or ANOVA followed by Student-Newman-Keuls multiple comparisons post-hoc analysis (for comparisons between three or more groups). […]

Assay [3] can be described thus: X-ray diffraction of membrane cholesterol domains in POPC/cholesterol model membranes, Example 9. The note with it: C/P 1.5:1. The protocol:
The fatty acid stock solutions were stored at −20° C. until use.
Samples were shell-dried under nitrogen gas and placed under vacuum for 3 hours to remove residual solvent at room temperature. After desiccation, each sample was resuspended in saline buffer (0.5 mM HEPES, 154 mM NaCl, pH 7.3) to yield a final phospholipid concentration of 2.5 mg/mL. Lipid suspensions were then vortexed for 3 minutes at ambient temperature to form MLVs.
Briefly, a 100 μL aliquot of each MLV preparation (containing 250 μg MLV) was transferred to a Lucite® sedimentation cell fitted with an aluminum foil substrate designed to collect MLVs into a single membrane pellet upon centrifugation.
After centrifugal orientation, sample supernatants were aspirated and aluminum foil substrates, each supporting a single membrane pellet, were removed from the sedimentation cells. Sample pellets were dried for 5-10 minutes at ambient conditions, mounted onto curved glass supports, and placed in hermetically-sealed, brass or glass containers (for immediate analysis or temporary storage, respectively). All x-ray diffraction experiments were conducted at 20° C., 74% relative humidity. The latter was established by exposing membrane samples to saturated solutions of L-(+)-tartaric acid (K2C4H4O6.½H2O) for at least 1 hour prior to experimental analysis. […]

Protocol for human sdLDL: Samples were prepared at 100 μg/mL sdLDL and incubated with EPA or DHA (10.0 μM each) for 30 minutes prior to initiating lipid oxidation using 10 μM CuSO4. Samples were maintained at 37° C. in a shaking water bath for 1 hour. Lipid oxidation was measured by colorimetric assay of TBARS formation and expressed as molar equivalents of MDA.
An experiment to study the antioxidant effect of EPA in LDL and small dense LDL (“sdLDL”) was performed. LDL and sdLDL were isolated from the plasma of healthy volunteers by iodixanol density gradient ultracentrifugation, and adjusted to a final apolipoprotein concentration of 2 mg/mL. […] Lipid oxidation was initiated with 10 μM CuSO4 and monitored by the colorimetric detection of thiobarbituric acid reactive substances (TBARS) for 1 hr. Vitamin E was also incubated with sample aliquots as a positive control.

Turning to `CC(C)c1c(C(=O)Nc2ccccc2O)c(-c2ccccc2)c(-c2ccc(F)cc2)n1CC[C@@H](O)C[C@@H](O)CC(=O)O` [ATM, Ortho (o)-hydroxy atorvastatin metabolite], the “inhibition of unfractionated LDL oxidation, dose dependence” value in the assay with human LDL is “significant and dose-dependent inhibition of unfractionated LDL oxidation”. In addition, in the assay on human sdLDL (ATM at the highest dose, 1 hr), the “inhibition of sdLDL oxidation vs vehicle” value is 90±2%. Further, in assay [1], the “antioxidant effects, separate treatments” value is “separate and potent antioxidant effects”. Besides, the “reduction in ONOO^− release” value in assay [2] came to 25%.

Take `CC/C=C\C/C=C\C/C=C\C/C=C\C/C=C\CCCC(=O)O` [EPA, cis-5,8,11,14,17-eicosapentaenoic acid]: the “increase in NO release as compared to vehicle” value in the assay with HUVECs is given as 45%. Besides, the figures for the “Relative Chotesterol Domain Peak Intensity” value in assay [3] (EPA D/P mole ratio 1:60) and in assay [3] (EPA D/P mole ratio 1:90) were 29.5 ± 10.9 and 36.0 ± 3.1, respectively. In the assay with human sdLDL (10.0 μM, after 4 hours), the “inhibition of sdLDL oxidation as compared to vehicle or DHA” value is given as “significantly inhibited sdLDL oxidation”. For the same molecule, the “inhibition of sdLDL oxidation (TBARS formation) vs vehicle” value in the assay on human sdLDL (each agent 10 μM, 1 hr) was 93±2% and 92±8%. Further, the “antioxidant effects, separate treatments” value in assay [1] was “separate and potent antioxidant effects”.
